This note sets out measurements from PubChem BioAssay (NCI).

What all share (test): NCI tumour cell line growth inhibition, 48 h
Experiment [1] has as its system COLO 205 colon.
The subject of experiment [2] is SNB-75 CNS.
The subject of experiment [3] is EKVX NSCLC.
Experiment [4] concerns ACHN renal.
In experiment [5] the test system is SF-268 CNS.
Experiment [6] deals with SF-295 CNS.
Experiment [7] concerns SNB-19 CNS.
Experiment [8] has as its system LOX IMVI melanoma.
Experiment [9] relates to 786-0 renal.
Experiment [10] concerns HOP-62 NSCLC.

Values joined by “and” are separate entries in the source; they are usually repeats but may differ in a detail not shown here. Identical values can stand only once.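 Each compound was tested at five concentrations against cells in 96-well plates for 48 hours. GI50 = concentration required for 50% inhibition of growth. TGI: concentration producing complete growth inhibition.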

For `COc1ccc(C(=O)Nc2ccc(S(=O)(=O)NCC(=O)O)cc2)cc1`, the TGI in experiment [1], in experiment [2], in experiment [3], in [4], in [5] and in experiment [6] was above 100 µM throughout. The TGI in [7], in [8] and in experiment [9] was above 100 µM each time.
Turning to `C=CC1(c2ccccc2Cl)N/C(=C/OCC)CO1` (stereo not given), the TGI in [1], in experiment [2], in experiment [3], in experiment [4], in experiment [10] and in experiment [5] was above 100 µM each time. The TGI in experiment [6] was above 100 µM; in experiment [7] it was above 100 µM; in [8], 55.3 µM; in experiment [9], above 100 µM.
Take `COc1ccc2[nH]c3c(C)c4cc[n+](C)cc4c(C)c3c2c1`: the TGI is 7.97 µM and 4.89 µM and 3.58 µM in experiment [1]; 801 nM [middle of 4 runs] in experiment [2]; above 85.3 µM in [4]; 2.24 µM [middle of 4 runs] in [10]; 1.04 µM [middle of 4 runs] in experiment [7]; 37 µM [middle of 4 runs] in [8]. In [9], this compound gave a TGI of 5.49 µM. Further, the GI50 was 158 nM and 324 nM in experiment [2]; 630 nM in [3]; 4040 nM in [4]; 311 nM and 240 nM in [10]; 50.4 nM and 38.5 nM in experiment [5]; 107 nM in [6]. For the same compound, the GI50 is 103 nM and 322 nM in experiment [7]; 3.98 µM and 3.32 µM in [8]; 267 nM and 161 nM and 898 nM in experiment [9].
As to `FC(F)(F)c1[nH]ncc1-c1nc2c(N3CCCCC3)cc3[nH]ncc3c2c2c1CCCC2`, the GI50 was 533 nM in experiment [2]; 868 nM in experiment [3]; 498 nM in [4]; 699 nM in [10]; 786 nM in [5]; 857 nM in [6]. Besides, the GI50 in experiment [7] is 1250 nM; in experiment [8], 0.656 µM; in experiment [9] it was 905 nM. For the same compound, the TGI was 1.2 µM in [2]; 2.48 µM in [3]; above 28 µM in experiment [4]; 3.12 µM in experiment [10]; 1.97 µM in experiment [5]; 3.16 µM in experiment [6]. The TGI in experiment [7] is above 16.5 µM; in experiment [8], 1.43 µM; in experiment [9], 2.93 µM.
`N.N.N.N.N.N#N.[Cl-].[Os+7]`: the GI50 in experiment [1], in experiment [2], in [3], in experiment [5], in [6] and in experiment [7] was above 100000 nM each time. The GI50 in experiment [8] is above 100 µM; in [9] it was above 100000 nM. Moreover, the TGI in [1], in [2], in experiment [3], in experiment [5], in experiment [6] and in experiment [7] was above 100 µM throughout. Further, the TGI in experiment [8] and in experiment [9] was above 100 µM throughout.
As for `Nc1c(S(=O)(=O)O)cc(Nc2cccc(S(N)(=O)=O)c2)c2c1C(=O)c1ccccc1C2=O`, the TGI in experiment [1] was above 100 µM; in experiment [2], 69 µM; in experiment [3], above 100 µM; in experiment [4] it was above 100 µM; in experiment [10] it was 71.9 µM; in experiment [5], above 100 µM. Besides, the TGI in experiment [6], in experiment [7], in [8] and in [9] was above 100 µM throughout.
As for `O=c1c2[nH]c3ccccc3c2nc2n1CCS2`, the GI50 in experiment [1] is above 100000 nM; in experiment [2], 15800 nM; in [3], 23600 nM; in [4], 65200 nM; in experiment [10], above 100000 nM; in experiment [5], above 100000 nM. For the same compound, the GI50 in experiment [6] is above 100000 nM; in experiment [7] it was above 100000 nM; in experiment [8], 54.7 µM; in [9], above 100000 nM. For the same compound, the TGI was above 100 µM in [1]; 77.3 µM in [2]; above 100 µM in [3]; above 100 µM in experiment [4]; above 100 µM in experiment [10]; above 100 µM in experiment [5]. Further, the TGI in experiment [6], in [7], in [8] and in experiment [9] was above 100 µM each time.
Turning to `C=CC[N+]1(CCO)CCN=C1CCCCCCCCCCCCC` (stereo not given), the GI50 in experiment [1] is 1700 nM; in experiment [2], 1560 nM; in [3], 1620 nM; in [10], 1720 nM; in experiment [6], 1810 nM; in experiment [7] it was 1630 nM. Moreover, the figures for the GI50 in [8] and in experiment [9] were 1.38 µM and 1650 nM, respectively. The TGI is 3.08 µM in experiment [1]; 2.9 µM in experiment [2]; 2.97 µM in experiment [3]; 3.09 µM in [10]; 3.3 µM in [6]; 2.99 µM in experiment [7]. Moreover, the TGI in experiment [8] worked out at 2.68 µM; in experiment [9], 3.01 µM.
On to `Nc1ccc(-c2ccc(Nc3cc(S(=O)(=O)O)c(N)c4c3C(=O)c3ccccc3C4=O)cc2)c(S(=O)(=O)O)c1`, for which the TGI in experiment [1], in [2], in [3], in experiment [4], in experiment [10] and in experiment [5] was above 100 µM in each case. Moreover, the TGI in experiment [6], in [7], in [8] and in experiment [9] was above 100 µM each time.
Regarding `COc1cc(/C=C2\CCCC3C2=Nc2ccccc2NC3c2cc(OC)c(OC)c(OC)c2)cc(OC)c1OC` (stereo not given), the GI50 in experiment [1] was 2590 nM; in [2], 21900 nM; in [3], 7450 nM; in experiment [4], 1660 nM; in experiment [10], 1860 nM; in experiment [5], 2020 nM. The GI50 in experiment [6] is 3650 nM; in experiment [7] it was 8370 nM; in [8], 1.81 µM; in experiment [9], 2550 nM. Further, the TGI in experiment [1] was 6.29 µM; in experiment [2], above 100 µM; in experiment [3] it was above 100 µM; in experiment [4], 3.57 µM; in experiment [10], 8.4 µM; in [5], 71.5 µM. The TGI in experiment [6] is above 100 µM; in experiment [7], above 100 µM; in experiment [8], 5.86 µM; in experiment [9], 8 µM.
